Calls of active or inactive are those of the source. No cut-off for these calls is given here.
Experiments:
HeLa [1] = experiment: Cytotoxicity against human HeLa cells harboring Fucci2 assessed as reduction in cell growth incubated for 3 days by MTT assay; type: functional, cell-based; details: 72 h
HeLa [2] = experiment: Inhibition of cell cycle progression in human HeLa cells harboring Fucci2 assessed as cell cycle arrest at S phase at 2 times of IC50 incubated for 2 days by fluorescence microscopic analysis; type: functional, cell-based; details: time 2.0 day
HeLa [3] = experiment: Inhibition of cell cycle progression in human HeLa cells harboring Fucci2 assessed as cell cycle arrest at G2/M phase at 2 times of IC50 incubated for 2 days by fluorescence microscopic analysis; type: functional, cell-based; details: time 2.0 day
HeLa [4] = experiment: Induction of cell cycle arrest in human HeLa cells assessed as accumulation at G1 phase at 15 uM incubated for 1 day by propidium iodide staining based flow cytometry analysis (reference value: 59.7 %); type: functional
HeLa [5] = experiment: Induction of cell cycle arrest in human HeLa cells assessed as accumulation at S phase at 15 uM incubated for 1 day by propidium iodide staining based flow cytometry analysis (reference value: 26.1 %); type: functional
HeLa [6] = experiment: Induction of cell cycle arrest in human HeLa cells assessed as accumulation in G2/M phase at 15 uM incubated for 1 day by propidium iodide staining based flow cytometry analysis (reference value: 14.2 %); type: functional

Structure (SMILES) | IC50 (HeLa [1]) | inhibition (HeLa [2]) | inhibition (HeLa [3]) | Activity (HeLa [4]) | Activity (HeLa [5]) | Activity (HeLa [6])
CC1=CCC[C@H]2[C@](C)(CC3=C(O)C(=O)C=C(N)C3=O)[C@@H](C)CC[C@]12C | 18 µM | Active | Active | 27.2% | 46.5% | 26.3%
CC1=CCC[C@H]2[C@](C)(CC3=C(O)C(=O)C=C(NCCC(C)C)C3=O)[C@@H](C)CC[C@]12C [NAKIJIQUINONE N] | 30 µM | Active | Active | – | – | –
COC(=O)c1ccc(O)c(C[C@]2(C)[C@@H](C)CC[C@]3(C)C(C)=CCC[C@@H]23)c1 | 13 µM | inactive | inactive | – | – | –
CC1=CCC[C@H]2[C@](C)(CC3=C(O)C(=O)C=C(NCCC[S+](C)[O-])C3=O)[C@@H](C)CC[C@]12C (stereo partly drawn) [NAKIJIQUINONE I] | 16 µM | Active | Active | – | – | –
CC1=CCC[C@H]2[C@](C)(CC3=C(O)C(=O)C=C(NCCc4ccccc4)C3=O)[C@@H](C)CC[C@]12C [NAKIJIQUINONE Q] | 36 µM | Active | Active | – | – | –

— ChEMBL document CHEMBL4680334, “Fluorescent image-based high-content screening of extracts of natural resources for cell cycle inhibitors and identification of a new sesquiterpene quinone from the sponge, Dactylospongia metachromia” (Bioorg Med Chem, 2021)
